Laboratory results: patent publication US20160159774A1 (Celgene Avilomics Research, Inc., priority 2014, published 2016)
pEC50, pIC50: −log10 of the molar value.

Experiments:
activated BTK enzyme = biological target: T1, activated BTK enzyme (Homo sapiens, UniProt Q06187); test: Omnia assay for potency assessment against BTK; assay type: biochemical; conditions: BTK inhibition assay; [BTK]=5 nM, [ATP]=40 μM, [Y5-Sox]=10 μM
T1 construct: purchased Life Technologies PV3363
In short: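 Activated BTK (5 nM) was pre-incubated 30 min at room temperature with compound, then reacted with 40 μM ATP (KMapp ~36 μM) and 10 μM Y5-Sox peptide in Tris pH 7.5/MgCl2/EGTA/DTT buffer. Sox fluorescence (ex360/em485) followed for 60 min; IC50 from initial velocities (~0–30 min) by variable-slope fit.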

[1] = biological target: T2, BTK in Ramos human Burkitt lymphoma cells (Homo sapiens, UniProt Q06187); test: BTK Ramos cellular assay (BTK occupancy); assay type: cell-based; conditions: concentration producing 50% occupancy of BTK, 1 hour incubation with compound
T2 construct: Compounds of this invention were assayed in Ramos human Burkitt lymphoma cells; endogenous in cells; host or cells: Ramos human Burkitt lymphoma cells
T2 sequence (Q06187 whole entry): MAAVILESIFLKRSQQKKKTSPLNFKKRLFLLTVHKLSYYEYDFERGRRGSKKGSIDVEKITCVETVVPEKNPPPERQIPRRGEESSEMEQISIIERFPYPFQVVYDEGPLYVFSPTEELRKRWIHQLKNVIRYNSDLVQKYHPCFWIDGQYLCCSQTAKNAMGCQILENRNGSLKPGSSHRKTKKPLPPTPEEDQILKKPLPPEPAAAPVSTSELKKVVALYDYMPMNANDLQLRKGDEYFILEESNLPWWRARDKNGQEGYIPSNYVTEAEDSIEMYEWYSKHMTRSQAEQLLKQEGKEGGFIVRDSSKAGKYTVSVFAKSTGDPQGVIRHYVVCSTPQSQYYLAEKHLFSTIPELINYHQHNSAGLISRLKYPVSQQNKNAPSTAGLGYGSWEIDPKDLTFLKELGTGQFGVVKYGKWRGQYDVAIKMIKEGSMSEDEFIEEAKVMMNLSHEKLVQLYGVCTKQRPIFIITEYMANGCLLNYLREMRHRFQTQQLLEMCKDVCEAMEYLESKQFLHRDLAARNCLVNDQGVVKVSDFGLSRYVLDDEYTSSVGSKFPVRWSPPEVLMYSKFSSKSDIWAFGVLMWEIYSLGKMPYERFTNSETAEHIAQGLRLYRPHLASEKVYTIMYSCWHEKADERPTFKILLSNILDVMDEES
In short: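 Ramos cells at 2×10^6 cells/mL in serum-free medium treated 1 hour with compound (500 to 0.7 nM final), then lysed. Free BTK captured by biotinylated covalent probe (1 μM final, 1 h) on streptavidin plate, detected by anti-Btk ELISA at OD 450 nm against recombinant Btk standard, normalized to total protein; value is concentration giving 50% occupancy.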

T1 sequence (Q06187 whole entry): as above

**Q.** With `C=CC(=O)N1CCC[C@@H](Nc2nc(Nc3ccc4c(c3)CN(C(C)(C)C)CC4)ncc2F)C1` [Compound I-49, (R)-1-(3-(2-(2-tert-Butyl-1,2,3,4-tetrahydroisoquinolin-7-ylamino)-5-fluoropyrimidin-4-ylamino)piperidin-1-yl)prop-2-en-1-one] as the compound, how does the pIC50 (activated BTK enzyme) read?
**A.** > 8.00

**Q.** And the pEC50 [1]?
**A.** 7.00 to 8.00

**Q.** And the melting point?
**A.** 118 to 121 °C

**Q.** With `C=CC(=O)N1CCC[C@@H](Nc2nc(Nc3ccc4c(c3)CN(CC3COC3)CCC4)ncc2F)C1` [Compound I-56, (R)-1-(3-(5-Fluoro-2-(2-(oxetan-3-ylmethyl)-2,3,4,5-tetrahydro-1H-benzo[c]azepin-8-ylamino)pyrimidin-4-ylamino)piperidin-1-yl)prop-2-en-1-one] as the compound, how does the pIC50 (activated BTK enzyme) read?
**A.** > 8.00

**Q.** What about the pEC50 [1] of the same compound?
**A.** 7.00 to 8.00

**Q.** And the melting point?
**A.** 103 to 105 °C

**Q.** With `C=CC(=O)N1CCC[C@@H](Nc2nc(Nc3ccc4c(c3)CCN(C)CC4)ncc2F)C1` [Compound I-58, (R)-1-(3-(5-Fluoro-2-(3-methyl-2,3,4,5-tetrahydro-1H-benzo[d]azepin-7-ylamino)pyrimidin-4-ylamino)piperidin-1-yl)prop-2-en-1-one] as the compound, how does the pIC50 (activated BTK enzyme) read?
**A.** > 8.00

**Q.** And the pEC50 [1]?
**A.** > 8.00

**Q.** What about the melting point of the same compound?
**A.** 102 to 104 °C

**Q.** With `C=CC(=O)N1CCC[C@@H](Nc2nc(Nc3ccc4c(c3)CCN(CC3COC3)CC4)ncc2F)C1` [Compound I-59, (R)-1-(3-(5-Fluoro-2-(3-(oxetan-3-ylmethyl)-2,3,4,5-tetrahydro-1H-benzo[d]azepin-7-ylamino)pyrimidin-4-ylamino)piperidin-1-yl)prop-2-en-1-one] as the compound, how does the pIC50 (activated BTK enzyme) read?
**A.** > 8.00

**Q.** What about the pEC50 [1] of the same compound?
**A.** > 8.00

**Q.** What about the melting point of the same compound?
**A.** 104 to 106 °C

**Q.** With `C=CC(=O)N1CCC[C@@H](Nc2nc(Nc3ccc4c(c3)CN(C)C4=O)ncc2F)C1` [Compound I-61, (R)-5-(4-(1-Acryloylpiperidin-3-ylamino)-5-fluoropyrimidin-2-ylamino)-2-methylisoindolin-1-one] as the compound, how does the pIC50 (activated BTK enzyme) read?
**A.** > 8.00

**Q.** And the pEC50 [1]?
**A.** 7.00 to 8.00

**Q.** What about the melting point of the same compound?
**A.** 120 to 122 °C
